Where “and” joins values, the source holds several entries; their conditions need not be identical. Equal values may be shown once.
Experiments:
[1] = tested on: Chinese cabbage soft rot; experiment: Test for disease control of Chinese cabbage, field (Example 1 / Comparative Example 1); type: in vivo, Erwinia carotovora; set-up: key to Disease incidence rate: % of examined plants that are diseased; key to Disease control value: (1 − severity treated/severity untreated) × 100; key to Disease severity: Σ(plants per class × index 0–4)/(plants examined × 4) × 100; details: for Disease incidence rate / Disease severity / Disease control value: 63 days; for Disease control value: vs untreated plot; for Control effect on Chinese cabbage soft rot (in words): Table 1 test, moderate incidence conditions, fluazinam 250 g ai/10 a on soil, streptomycin 1/1000 foliage spraying
Protocol: Preparation was performed using 500 g/L of 3-chloro-N-(3-chloro-5-trifluoromethyl-2-pyridyl)-alpha,alpha,alpha-trifluoro-2,6-dinit ro-p-toluidine (fluazinam (common name), Frowncide SC (trade name), manufactured by Ishihara Sangyo Kaisha, Ltd.) such that the amount of the active ingredient was 250 g ai/10 a (500 mL product/10 a), and the amount of dilution water was 150 L/10 a.
The spray solution prepared in the above was sprayed onto cultivation soil in a field such that the spraying amount was 0.25 g/m^2 (150 L/10 a), and thereafter, a mulch-sheet for agricultural use was spreaded on the soil. After planting holes for settlement (diameter: about 5 cm) were made, seedlings of Chinese cabbage (cultivar: Musou) grown for 4 weeks in a cell tray (128 holes/nursery box) were planted such that 30 seedlings were planted in one test plot having an area of 6 m^2 with three replications.
(§1) Preparation was performed by diluting streptomycin (Mycin 20 wettable powder (trade name), manufactured by Hokko Chemical Industry Co., Ltd.) with water to 1/1000.
(§2) In a field covered with a mulch-sheet for agricultural use, seedlings of Chinese cabbage (cultivar: Musou) grown in a cell tray were planted, in the same manner as in Example 1, and foliage application was performed by spraying the spray solution of streptomycin prepared in (1) (spraying amount per application: 200 L/10 a) twice (39 days and 47 days after the planting of the seedlings).
The degree of disease incidence was examined for all the plants in each test plot 63 days after the start of the test, and the disease incidence rate, the disease severity, and the disease control value were calculated according to the following equations, and the test results are shown in Table 1.
(§3) (Disease incidence rate)=[(number of diseased plants)/(number of plants examined)]*100
(§4) (Disease severity)={S [(number of diseased plants in each class into which the plants are classified according to the degree of disease)*(disease index)]/[(number of plants examined)*4]}*100
(§5) (Disease control value)={1-[(Disease severity in treated plot)/(Disease severity in untreated plot)]}*100
(§6) Incidentally, the evaluation criteria for the disease index are as follows. • (Disease index) • 0: No lesion • 1: Lesions appear only in part of outer leaves (shipment can be made). • 2: Lesions appear in outer leaves and part of head leaves (the damaged part is removed and shipment as a small size plant can be made, rated Grade B). • 3: Lesions appear in most head leaves or more (shipment cannot be made). • 4: Lesions appear in the entire plant and the plant dies.

[2] = tested on: Chinese cabbage soft rot; experiment: Test for disease control of Chinese cabbage, field (Example 4 / Comparative example 3); type: in vivo, Erwinia carotovora; set-up: key to Disease incidence rate: % of examined plants diseased; key to Disease control value: (1 − treated/untreated severity)×100; 100 = full control; key to Disease severity: severity index 0–100 from disease classes 0–4 (sum/(plants×4)×100); details: for Disease incidence rate / Disease severity / Disease control value: 64 days; for Disease control value: vs untreated plot
Source text: as §3, §4, §5, §6
Preparation was performed using 500 g/L of 3-chloro-N-(3-chloro-5-trifluoromethyl-2-pyridyl)-alpha,alpha,alpha-trifluoro-2,6-dinit ro-p-toluidine (fluazinam, Frowncide SC (trade name), manufactured by Ishihara Sangyo Kaisha, Ltd.) such that the amount of the active ingredient was 62.5 g ai/10 a (125 mL product/10 a), 125 g ai/10 a (250 mL product/10 a), and 250 g ai/10 a (500 mL product/10 a), and each amount of dilution water was 150 L/10 a.
A mulch-sheet for agricultural use was spreaded on soil, and planting holes for settlement (diameter: about 5 cm) were made, and then, the spray solution prepared in the above was sprayed onto the planting holes such that the amount of treated active ingredient was 0.0625 g/m^2 (150 L/10 a) in the case of the spray solution containing the active ingredient at 62.5 g ai/10 a, 0.125 g/m^2 (150 L/10 a) in the case of the spray solution containing the active ingredient at 125 g ai/10 a, and 0.25 g/m^2 (150 L/10 a) in the case of the spray solution containing the active ingredient at 250 g ai/10 a, followed by air-drying. Then, seedlings of Chinese cabbage (cultivar: Harebutai 65) grown for 4 weeks in a cell tray (128 holes/nursery box) were planted such that 19 seedlings were planted in one test plot having an area of 2.4 m^2 with two replications.
as §1
as §2, with “Harebutai 65)” for “Musou)”, “4,” for “1,”, “performed with a sprayer” for “performed”, “300” for “200”, “(27” for “(39”, “48” for “47”
The degree of disease incidence was examined for all the plants in each test plot 64 days after the start of the test, and the disease severity and the disease control value were evaluated. Incidentally, the disease severity and the disease control value were obtained in the same manner as described above.

[3] = tested on: Erwinia carotovora (potato Erwinia carotovora); experiment: Test for growth inhibition of potato Erwinia carotovora (PSA medium plate); type: cell-based; details: for Growing state of Erwinia carotovora (formed colonies): PSA medium, 25 degrees C., 4 days, two plates per cell
Protocol: Reference test example: Test for growth inhibition of potato Erwinia carotovora
A test for growth inhibition of Erwinia carotovora in the case of direct application of the control agent to Erwinia carotovora was performed. To previously melted PSA medium (55 degrees C.), a predetermined amount of a pesticide 3-chloro-N-(3-chloro-5-trifluoromethyl-2-pyridyl)-alpha,alpha,alpha-trifluoro-2,6-dinit ro-p-toluidine (fluazinam, Frowncide SC (trade name), manufactured by Ishihara Sangyo Kaisha, Ltd.), ethaboxam wettable powder (Ethaboxam, Gardian (trade name), manufactured by LG Chemical), or streptomycin (Mycin wettable powder (trade name), manufactured by Hokko Chemical Industry Co., Ltd.) and a suspension of Erwinia carotovora (potato Erwinia carotovora) were added and the resulting mixture was stirred well, and then, poured in a plate. Then, the plate was cultured at 25 degrees C. for 4 days, and the growing state of Erwinia carotovora was examined. Thereafter, the formed colonies were examined according to the following three criteria. • +: Equal to the colonies of the untreated group • Plus or minus: Apparently less than the colonies of the untreated group • −: Almost no colonies

[4] = 250 g ai/10 a, 150 L/10a onto cultivation soil, Musou, Average of replications
[5] = 62.5 g ai/10 a, 150 L/10 a onto planting holes, Harebutai 65, Average
[6] = 125 g ai/10 a, 150 L/10 a onto planting holes, Harebutai 65, Average
[7] = 250 g ai/10 a, 150 L/10 a onto planting holes, Harebutai 65, Average
[8] = 250 g ai/10 a, 150 L/10 a onto planting holes, Harebutai 65, single replications I-II
[9] = 1/1000 dilution, foliage application twice, Musou, Average of replications
[10] = 1/1000 dilution, foliage application twice, Harebutai 65, Average

O=[N+]([O-])c1cc(C(F)(F)F)c(Cl)c([N+](=O)[O-])c1Nc1ncc(C(F)(F)F)cc1Cl [Fluazinam, 3-chloro-N-(3-chloro-5-trifluoromethyl-2-pyridyl)-alpha,alpha,alpha-trifluoro-2,6-dinit ro-p-toluidine]
Disease incidence rate [1, 4]: 13.3
Disease severity [1, 4]: 6.4
Disease severity ([1]; 250 g ai/10 a, 150 L/10a onto cultivation soil, Musou, single replications I-III): 5.0 and 8.3 and 5.8
Disease control value ([1]; 250 g ai/10 a, 150 L/10a onto cultivation soil, Musou): 81.7
Disease incidence rate ([1]; 250 g ai/10 a, 150 L/10a sprayed onto cultivation soil before mulch-sheet, cultivar Musou, single replications I-III): 16.7 and 13.3 and 10.0
Control effect on Chinese cabbage soft rot (in words) [1]: a control effect on Chinese cabbage soft rot was observed
Disease incidence rate [2, 5]: 44.7
Disease severity [2, 5]: 13.8
Disease severity ([2]; 62.5 g ai/10 a, 150 L/10 a onto planting holes, Harebutai 65, single replications I-II): 9.2 and 18.4
Disease control value ([2]; 62.5 g ai/10 a, 150 L/10 a onto planting holes, Harebutai 65): 56.3
Disease incidence rate ([2]; 62.5 g ai/10 a, 150 L/10 a onto planting holes, cultivar Harebutai 65, single replications I-II): 36.8 and 52.6
Disease incidence rate [2, 6]: 36.1
Disease severity [2, 6]: 10.5
Disease control value ([2]; 125 g ai/10 a, 150 L/10 a onto planting holes, Harebutai 65): 66.8
Disease incidence rate [2, 7]: 31.2
Disease severity [2, 7]: 8.5
Disease incidence rate [2, 8]: 23.5 and 38.9
Disease severity [2, 8]: 5.9 and 11.1
Disease control value ([2]; 250 g ai/10 a, 150 L/10 a onto planting holes, Harebutai 65): 73.1
Control effect on Chinese cabbage soft rot compared with foliage application of streptomycin (in words) ([2]; Table 4 test, moderate incidence conditions, even at 62.5 g ai/10 a or 125 g ai/10 a): a higher control effect
Growing state of Erwinia carotovora (formed colonies) ([3]; Active ingredient concentration 100 ppm): +, +
Growing state of Erwinia carotovora (formed colonies) ([3]; Active ingredient concentration 500 ppm): +, +
Growing state of Erwinia carotovora (formed colonies) ([3]; Active ingredient concentration 1000 ppm): ±, ±
Growth inhibition of Erwinia carotovora (in words) ([3]; active ingredient concentration of 1000 ppm, direct application): did not inhibit the growth

[H]/N=C(/N)N[C@H]1[C@H](O)[C@@H](O)[C@H](O[C@@H]2O[C@@H](C)[C@](O)(C=O)[C@H]2O[C@@H]2O[C@@H](CO)[C@H](O)[C@@H](O)[C@@H]2NC)[C@@H](N/C(N)=N\[H])[C@@H]1O [Streptomycin, streptomycin]
Disease incidence rate [1, 9]: 60.0
Disease severity [1, 9]: 37.8
Disease control value ([1]; 1/1000 dilution, foliage application twice, Musou): 0
Control effect on Chinese cabbage soft rot (in words) [1]: not observed at all
Disease incidence rate ([2]; 1/1000 dilution, foliage application 300 L/10 a twice (27 and 48 days), Harebutai 65, single replications I-II): 44.4 and 63.2
Disease incidence rate [2, 10]: 53.8
Disease severity [2, 10]: 14.9
Disease severity ([2]; 1/1000 dilution, foliage application twice, Harebutai 65, single replications I-II): 13.9 and 15.8
Disease control value ([2]; 1/1000 dilution, foliage application twice, Harebutai 65): 52.8
Growing state of Erwinia carotovora (formed colonies) ([3]; Active ingredient concentration 1 ppm): −, −
Growing state of Erwinia carotovora (formed colonies) ([3]; Active ingredient concentration 10 ppm): −, −

— patent publication US20120088803A1, “CONTROL AGENT FOR SOFT ROT AND CONTROL METHOD FOR THE SAME” (Ishihara Sangyo Kaisha, Ltd, priority 2009, published 2012)
